In patent publication US7371766B2, “Curcumin analogs with anti-tumor and anti-angiogenic properties” (Emory University, priority 1999, dated 2008):
Marks after values point to notes of the source that are not given here.

What was measured:
[1] = test system: Vascular Endothelial Growth Factor (VEGF) production by human melanoma cell line RPMI-7951; assay: VEGF ELISA, RPMI-7951; conditions: for VEGF / VEGF ELISA: RPMI-7951; for VEGF ELISA: DMSO control 3713
[2] = test system: Sixty human tumor cell lines; conditions: for GI50: read-out: Median Growth Inhibitory Concentration (GI50), Mean, Mean over the NCI cell lines
HL-60 (TB) = assay: cells; conditions: Homo sapiens, HL-60, 48 h; for GI50: read-out: Median Growth Inhibitory Concentration (GI50); for CC50: read-out: Median Lethal Concentration (LC50)
OVCAR-3 = assay: cells; conditions: Homo sapiens, OVCAR-3, 48 h; for GI50: read-out: Median Growth Inhibitory Concentration (GI50); for CC50: read-out: Median Lethal Concentration (LC50)
DU-145 = assay: cells; conditions: Homo sapiens, DU-145, 48 h; for GI50: read-out: Median Growth Inhibitory Concentration (GI50); for CC50: read-out: Median Lethal Concentration (LC50)
NCI-H460 = assay: cells; conditions: Homo sapiens, NCI-H460, 48 h; for GI50: read-out: Median Growth Inhibitory Concentration (GI50); for CC50: read-out: Median Lethal Concentration (LC50)
U251 = assay: cells; conditions: Homo sapiens, U-251, 48 h; for GI50: read-out: Median Growth Inhibitory Concentration (GI50); for CC50: read-out: Median Lethal Concentration (LC50)
HOP-62 = assay: cells; conditions: Homo sapiens, HOP-62, 48 h; for GI50: read-out: Median Growth Inhibitory Concentration (GI50)
UACC-62 = assay: cells; conditions: Homo sapiens, UACC-62, 48 h; for GI50: read-out: Median Growth Inhibitory Concentration (GI50); for CC50: read-out: Median Lethal Concentration (LC50)
CCRF-CEM = assay: cells; conditions: Homo sapiens, 48 h; for GI50: read-out: Median Growth Inhibitory Concentration (GI50)
HT29 = assay: cells; conditions: Homo sapiens, HT-29, 48 h; for GI50: read-out: Median Growth Inhibitory Concentration (GI50); for CC50: read-out: Median Lethal Concentration (LC50)
786-0 = assay: cells; conditions: Homo sapiens, 786-0, 48 h; for GI50: read-out: Median Growth Inhibitory Concentration (GI50); for CC50: read-out: Median Lethal Concentration (LC50)
MDA-N = assay: cells; conditions: Homo sapiens, 48 h; for GI50: read-out: Median Growth Inhibitory Concentration (GI50); for CC50: read-out: Median Lethal Concentration (LC50)
NCI/ADR-RES = assay: cells; conditions: Homo sapiens, 48 h; for GI50: read-out: Median Growth Inhibitory Concentration (GI50); for CC50: read-out: Median Lethal Concentration (LC50)
CAKI-1 = assay: cells; conditions: Homo sapiens, CAKI-1, 48 h; for GI50: read-out: Median Growth Inhibitory Concentration (GI50); for CC50: read-out: Median Lethal Concentration (LC50)
MDA-MB-231 = assay: cells; conditions: Homo sapiens, MDA-MB-231, 48 h; for GI50: read-out: Median Growth Inhibitory Concentration (GI50); for CC50: read-out: Median Lethal Concentration (LC50)
MALME-3M = assay: cells; conditions: Homo sapiens, 48 h; for GI50: read-out: Median Growth Inhibitory Concentration (GI50); for CC50: read-out: Median Lethal Concentration (LC50)
SW-620 = assay: cells; conditions: Homo sapiens, SW-620, 48 h; for GI50: read-out: Median Growth Inhibitory Concentration (GI50); for CC50: read-out: Median Lethal Concentration (LC50)
HCC-2998 = assay: cells; conditions: Homo sapiens, HCC 2998, 48 h; for GI50: read-out: Median Growth Inhibitory Concentration (GI50); for CC50: read-out: Median Lethal Concentration (LC50)
LOX IMVI = assay: cells; conditions: Homo sapiens, 48 h; for GI50: read-out: Median Growth Inhibitory Concentration (GI50)
NCI-H23 = assay: cells; conditions: Homo sapiens, NCI-H23, 48 h; for GI50: read-out: Median Growth Inhibitory Concentration (GI50); for CC50: read-out: Median Lethal Concentration (LC50)
MDA-MB-435 = assay: cells; conditions: Homo sapiens, MDA-MB-435, 48 h; for GI50: read-out: Median Growth Inhibitory Concentration (GI50); for CC50: read-out: Median Lethal Concentration (LC50)
NCI-H226 = assay: cells; conditions: Homo sapiens, NCI-H226, 48 h; for GI50: read-out: Median Growth Inhibitory Concentration (GI50); for CC50: read-out: Median Lethal Concentration (LC50)
SF-539 = assay: cells; conditions: Homo sapiens, SF-539, 48 h; for GI50: read-out: Median Growth Inhibitory Concentration (GI50); for CC50: read-out: Median Lethal Concentration (LC50)
HCT-116 = assay: cells; conditions: Homo sapiens, HCT-116, 48 h; for GI50: read-out: Median Growth Inhibitory Concentration (GI50); for CC50: read-out: Median Lethal Concentration (LC50)
SF-295 = assay: cells; conditions: Homo sapiens, SF-295, 48 h; for GI50: read-out: Median Growth Inhibitory Concentration (GI50); for CC50: read-out: Median Lethal Concentration (LC50)
K-562 = assay: cells; conditions: Homo sapiens, K562, 48 h; for GI50: read-out: Median Growth Inhibitory Concentration (GI50); for CC50: read-out: Median Lethal Concentration (LC50)
KM12 = assay: cells; conditions: Homo sapiens, KM12, 48 h; for GI50: read-out: Median Growth Inhibitory Concentration (GI50); for CC50: read-out: Median Lethal Concentration (LC50)
A498 = assay: cells; conditions: Homo sapiens, A498, 48 h; for GI50: read-out: Median Growth Inhibitory Concentration (GI50); for CC50: read-out: Median Lethal Concentration (LC50)
[3] = Homo sapiens, RPMI-7951, 72 h, read-out: VEGF
[4] = 5 μM, DMSO control 4197 (EF-25: 1045)
[5] = read-out: Median Lethal Concentration (LC50)
[6] = NCI Anti-Tumor Screen, several cell types

Molecule: 3,5-Bis(2-hydroxybenzylidene)-sulfone [EF11]
- VEGF ([1]; 20 μM, DMSO = 100): 51%
- GI50 ([2]; 48 hours): 34.7 µM

Molecule: N.N.[Cl][Pt][Cl] [Cisplatin, reference compound]
- GI50 ([2]; 48 hours): 0.7 µM

Molecule: COc1cc(/C=C/C(=O)CC(=O)/C=C/c2ccc(O)c(OC)c2)ccc1O [Curcumin]
- GI50 (HL-60 (TB)): 7.9 µM
- CC50 (HL-60 (TB)): < 100 µM
- GI50 (OVCAR-3): 6.3 µM
- CC50 (OVCAR-3): 63.1 µM
- GI50 (DU-145): 15.8 µM
- CC50 (DU-145): 63.1 µM
- GI50 (NCI-H460): 7.9 µM
- CC50 (NCI-H460): 63.1 µM
- GI50 (U251): 5 µM
- CC50 (U251): 50.1 µM
- GI50 (HOP-62): 4 µM
- GI50 (UACC-62): 6.3 µM
- CC50 (UACC-62): 50.1 µM
- GI50 (CCRF-CEM): 3.2 µM
- GI50 (HT29): 5 µM
- CC50 (HT29): < 100 µM
- GI50 (786-0): 3.2 µM
- CC50 (786-0): 39.8 µM
- GI50 (MDA-N): 2.5 µM
- CC50 (MDA-N): 31.6 µM
- GI50 (NCI/ADR-RES): 7.9 µM
- CC50 (NCI/ADR-RES): < 100 µM
- GI50 (CAKI-1): 12.6 µM
- CC50 (CAKI-1): 50.1 µM
- GI50 (MDA-MB-231): 20 µM
- CC50 (MDA-MB-231): < 100 µM
- GI50 (MALME-3M): 12.6 µM
- CC50 (MALME-3M): 50.1 µM
- GI50 (SW-620): 4 µM
- CC50 (SW-620): 79.4 µM
- GI50 (HCC-2998): 3.2 µM
- CC50 (HCC-2998): 31.6 µM
- GI50 (LOX IMVI): 2.5 µM
- GI50 (NCI-H23): 5 µM
- CC50 (NCI-H23): < 100 µM
- GI50 (MDA-MB-435): 3.2 µM
- CC50 (MDA-MB-435): 39.8 µM
- activity at 5 µM [1, 3]: 98%
- activity at 20 µM [1, 3]: 5%
- VEGF ELISA ([1]; 5 μM): 3989 pg/ml/well
- VEGF [1, 4]: 4111 pg/mL
- VEGF ELISA ([1]; 20 μM): 714 pg/ml/well
- VEGF ([1]; 20 μM, DMSO control 4197): 221 pg/mL
- GI50 (NCI-H226): 20 µM
- CC50 (NCI-H226): < 100 µM
- GI50 (SF-539): 3.2 µM
- CC50 (SF-539): 31.6 µM
- GI50 (HCT-116): 3.2 µM
- CC50 (HCT-116): 50.1 µM
- GI50 (SF-295): 7.9 µM
- CC50 (SF-295): 50.1 µM
- GI50 (K-562): 3.2 µM
- CC50 (K-562): < 100 µM
- GI50 (KM12): 5 µM
- CC50 (KM12): 63.1 µM
- GI50 (A498): 15.8 µM
- CC50 (A498): 63.1 µM

Molecule: C(=C\c1ccccc1)/S/C=C/c1ccccc1 [EF15]
- VEGF ([1]; 5 μM, DMSO = 100): 28%
- VEGF ELISA ([1]; 5 μM): 2361 pg/ml/well
- VEGF [1, 4]: 1187 pg/mL
- VEGF ([1]; 20 μM, DMSO = 100): 22%
- VEGF ELISA ([1]; 20 μM): 894 pg/ml/well
- VEGF ([1]; 20 μM, DMSO control 4197): 938 pg/mL
- GI50 ([2]; 48 hours): 75.9 µM

Molecule: OC(CCc1ccc(F)cc1F)CCc1ccc(F)cc1F [EF19, 1,5-Bis(2,4-difluorophenyl)-pentan-3-ol]
- GI50 (HL-60 (TB)): 18.1 µM
- CC50 (HL-60 (TB)): 66.8 µM
- GI50 (OVCAR-3): 17.9 µM
- CC50 (OVCAR-3): 59.3 µM
- GI50 (DU-145): 18.1 µM
- CC50 (DU-145): 56.6 µM
- GI50 (NCI-H460): 17.9 µM
- CC50 (NCI-H460): 57.5 µM
- GI50 (U251): 17.4 µM
- CC50 (U251): 55.8 µM
- GI50 (HOP-62): 18 µM
- CC50 (HOP-62; [5]): 58.7 µM
- GI50 (UACC-62): 15.1 µM
- CC50 (UACC-62): 53.2 µM
- GI50 (CCRF-CEM): 18.2 µM
- CC50 (CCRF-CEM; [5]): 72.3 µM
- GI50 (HT29): 17.9 µM
- CC50 (HT29): 62.6 µM
- GI50 (786-0): 17 µM
- CC50 (786-0): 55.4 µM
- GI50 (MDA-N): 16.9 µM
- CC50 (MDA-N): 55.2 µM
- GI50 (NCI/ADR-RES): 25.3 µM
- CC50 (NCI/ADR-RES): > 100 µM
- GI50 (CAKI-1): 21.8 µM
- CC50 (CAKI-1): 67.8 µM
- GI50 (MDA-MB-231): 22.4 µM
- CC50 (MDA-MB-231): 66.3 µM
- GI50 (MALME-3M): 18 µM
- CC50 (MALME-3M): 59.6 µM
- GI50 (SW-620): 17.7 µM
- CC50 (SW-620): 63.7 µM
- GI50 (HCC-2998): 17.7 µM
- CC50 (HCC-2998): 56.1 µM
- GI50 (LOX IMVI): 20 µM
- CC50 (LOX IMVI; [5]): 74.4 µM
- GI50 (NCI-H23): 22.8 µM
- CC50 (NCI-H23): 96.8 µM
- GI50 (MDA-MB-435): 17.1 µM
- CC50 (MDA-MB-435): 55.6 µM
- GI50 (NCI-H226): 19.9 µM
- CC50 (NCI-H226): 75.7 µM
- GI50 (SF-539): 16.9 µM
- CC50 (SF-539): 55.3 µM
- GI50 (HCT-116): 17.8 µM
- CC50 (HCT-116): 56.3 µM
- GI50 (SF-295): 18.7 µM
- CC50 (SF-295): 69.7 µM
- GI50 (K-562): 19 µM
- CC50 (K-562): 90.1 µM
- GI50 (KM12): 17.6 µM
- CC50 (KM12): 56.1 µM
- GI50 (A498): 16.3 µM
- CC50 (A498): 54.7 µM

Molecule: O=C1C(=Cc2ccccc2O)COCC1=Cc1ccccc1O [EF25, 3,5-Bis(2-hyrdoxybenzylidene)tetrahydro4-H-pyran4-one]
- VEGF ([1]; 5 μM, DMSO = 100): 21%
- VEGF [1, 4]: 216* pg/ml
- GI50 compared with CISPLATIN, in words [2, 6]: lower GI50 than the chemotherapeutic agent CISPLATIN for several cell types
- LC50 compared with CISPLATIN, in words [2, 6]: lower LC50 than the chemotherapeutic agent CISPLATIN for several cell types
- GI50 ([2]; 48 hours): 1.1 µM
- CC50 ([2]; read-out: Median Lethal Concentration (LC50), Mean, Mean over the cell line panel, 48 hours, SRB assay): 24.2 µM
